According to the CheMixHub viscosity set:

Assay: xn = mol fraction of the nth substance listed
Details: 101.33 kPa

CC(N)CN (stereo not given) + OCCO
viscosity [mPa·s]
Details | 298.15 K | 303.15 K | 308.15 K | 313.15 K | 318.15 K
x2 = 0.0513 | 1.89 | 1.66 | 1.4 | 1.33 | 1.23
x2 = 0.1024 | 2.46 | 2.17 | 1.8 | 1.69 | 1.53
x2 = 0.1534 | 3.22 | 2.9 | 2.34 | 2.19 | 1.98
x2 = 0.2043 | 4.66 | 3.91 | 3.1 | 2.84 | 2.51
x2 = 0.255 | 6.47 | 5.31 | 4.14 | 3.73 | 3.23
x2 = 0.3056 | 9.02 | 7.28 | 5.57 | 4.91 | 4.28
x2 = 0.356 | 12.47 | 9.89 | 7.43 | 6.42 | 5.39
x2 = 0.4064 | 17.12 | 13.17 | 9.78 | 8.33 | 6.89
x2 = 0.4566 | 22.35 | 17 | 12.38 | 10.39 | 8.36
x2 = 0.5066 | 27.55 | 20.91 | 15.09 | 12.54 | 10
x2 = 0.5565 | 32.68 | 24.47 | 17.48 | 14.47 | 11.46
x2 = 0.6063 | 36.17 | 26.99 | 19.26 | 15.91 | 12.62
x2 = 0.6556 | 37.44 | 28.04 | 20.15 | 16.67 | 13.25
x2 = 0.7055 | 36.53 | 27.76 | 20.09 | 16.66 | 13.32
x2 = 0.7549 | 34.46 | 26.24 | 19.07 | 15.99 | 12.78
x2 = 0.8042 | 32.78 | 24.03 | 17.71 | 14.9 | 11.97
x2 = 0.8533 | 28.17 | 21.54 | 15.99 | 13.67 | 11.17
x2 = 0.9024 | 24.94 | 18.68 | 14.07 | 12.16 | 10
x2 = 0.9512 | 20.88 | 16.21 | 12.23 | 10.67 | 8.83
